Legend:
[1] = system: SH-SY5Y cells; assay: Annexin V/PI dual staining, apoptosis by flow cytometry in H2O2 injured SH-SY5Y cells; type: cell-based, human; details: NAC 1 mM pre-treated 1 hour, then H2O2 400 μM 24 hours; P<0.05
Method: (§1) The culture of cells. Human neuroblastoma cells SH-SY5Y (American Type Culture Collection, Manassas, VA, USA) were cultivated in an incubator at 37° C. and a volume fraction of 5% CO2. The culture medium contains DMEM/F-12, 2 mM glutamine, 100 U/ml penicillin, 100 μg/ml streptomycin, and 10% FBS. Cells were seeded into a 96 well plate at a density of 2×10^4 cells per well and subjected to proliferation until 90%.
(§2) The cells were randomly divided into four groups: blank control group, hydrogen peroxide group (Veh), Mep-S group, and NAC group (a neuroprotective drug used as a positive control). The cells of Mep-S group (1 μM) and NAC group (1 mM) were pre-treated with corresponding concentrations of drugs for 1 hour. Then, except for the blank control group which was given physiological saline, the cells of all other groups were incubated with H2O2 (400 μM) for 24 hours.
Annexin V/PI dual staining method was used to detect the protective effect of Mep-S on cellular oxidative damage. Cell apoptosis was measured by flow cytometry using FITC Annexin V apoptosis detection kit (BD Pharmingen, Franklin Lakes, NJ, USA). The operation was performed following the instructions.

[2] = system: Keap1-Nrf2/ARE signaling pathway; assay: Western blot of Keap1-Nrf2/ARE pathway related proteins in H2O2 induced SH-SY5Y nerve cell injury model; type: cell-based, human; details: NAC 1 mM pre-treated 1 hour, then H2O2 400 μM 24 hours, P<0.05
Method: as §1, §2
Western blot was used to detect the expression levels of neuronal apoptosis protein (Caspase3) and Keap1-Nrf2/ARE pathway related proteins (Keap1, Nrf2, HO-1, NQO-1, etc.) in each group. The bands were visualized using enhanced chemiluminescence (Pierce, Rockford, IL, USA) and quantitative analysis was performed using Image Studio Lite 5.2.

[3] = system: ovarian granulosa cells; assay: Protection of primary ovarian granulosa cells against doxorubicin (DOX) cytotoxicity, CCK-8; type: cell-based, mice; details: DOX alone, final concentration 25 μg/mL
Method: In-vitro-Culture of granulosa cells of mice. Female ICR mice aged 21 to 23 days were euthanized by dislocation after anesthesia. After disinfecting the abdominal skin with 75% alcohol, bilateral ovaries were taken out and antral follicles were punctured under dissecting microscope to release granulosa cells into a M2 culture medium containing 20% FBS. Then the culture medium was centrifuged at 1,000 revolutions per minute for 5 minutes. Supernatant was discarded, and residue was washed three times with a culture medium, and then was placed in a 96 well plate in an alpha MEM culture medium containing 5% FBS for further culture. […]
After the granulosa cells in a 96 well plate prolificated to 70% to 80%, the culture medium was taken out, and 10 μL of the test drug (C1 (a compound represented by Formula I, m is 3, R1 is OH, and R2 is H), C2 (a compound represented by Formula I, m is 3, R1 is Cl, and R2 is H), C3 (a compound represented by Formula I, m is 3, R1 is OCH3, and R2 is H), C4 (a compound represented by Formula I, m is 3, R1 is H, and R2 is H)), 10 μL of DOX with a final concentration of 25 μg/mL, and 80 μL of fresh culture medium were sequentially added. […] The absorbance (OD) value (450 nm) of each well was measured using an enzyme-linked immunosorbent assay (ELISA) reader to calculate the survival rate of granulosa cells of mice. […]

[4] = compared with H2O2 damage group

| Compound | apoptosis rate of SH-SY5Y cells [1] | phosphorylation level of Akt [2] | level of HO-1 protein [2, 4] | level of Keap 1 protein [2, 4] | level of NQO-1 protein [2, 4] | level of Nrf2 protein in the cell nucleus [2, 4] | level of Nrf2 protein in the cytoplasm [2, 4] | Cell survival rate (%) ([3]; 24 hours, CCK-8 (positive control group)) | growth of granulosa cells (in words) ([3]; p<0.01 versus negative control) |
| --- | --- | --- | --- | --- | --- | --- | --- | --- | --- |
| CC(=O)N[C@@H](CS)C(=O)O [NAC] | significantly reduces the apoptosis rate | significantly restores its expression level | significantly inhibits the decrease | inhibits the increase | significantly inhibits the decrease | significantly inhibits the decrease | inhibits the increase |  |  |
| COc1cccc2c1C(=O)c1c(O)c3c(c(O)c1C2=O)C[C@@](O)(C(=O)CO)C[C@@H]3O[C@H]1C[C@H](N)[C@H](O)[C@H](C)O1 [DOX, doxorubicin] |  |  |  |  |  |  |  | 61.8 | significantly inhibited the growth |

— patent US20250345344A1, “NOVEL NRF2 ACTIVATOR AND USE THEREOF” (SHANGHAI INSTITUTE FOR BIOMEDICAL AND PHARMACEUTICAL …, priority 2022, published 2025)
